Test results reported in patent US9346809B2 (LEO PHARMA A/S, priority 2009, dated 2016).

Key:
Assay type in all cases: biochemical
[1] = biological target: T1, JAK2 (catalytic domain, His-tag) (Homo sapiens, UniProt O60674); assay: JAK kinase assay (HTRF, phosphorylation of TK substrate-biotin), JAK2; settings: HTRF assay, ATP at Km (4 μM); read-out: JAK2 kinase inhibitory activity (EC50 indicator)
T1 construct: All four purified enzymes contain only the catalytic domain; His (N); purchased Carna Biosciences, Inc; host or cells: baculovirus expression system
Procedure, shortened: (§1)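 HTRF KinEASE TK format; 1 μM biotinylated peptide, Km ATP: 7 μM (JAK1, 10 mM MgCl2, 50 nM SEB), 4 μM (JAK2), 2 μM (JAK3), 13 μM (TYK2, 50 nM SEB); 5 mM MgCl2 for the latter three. RT 20-30 min, 0.75% DMSO final. Overnight detection, EC50.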

[2] = biological target: T2, JAK3 (catalytic domain, His-tag) (Homo sapiens, UniProt P52333); assay: JAK kinase assay (HTRF, phosphorylation of TK substrate-biotin), JAK3; settings: HTRF assay, ATP at Km (2 μM); read-out: JAK3 kinase inhibitory activity (EC50 indicator)
T2 construct: All four purified enzymes contain only the catalytic domain; His (N); purchased Carna Biosciences, Inc; host or cells: baculovirus expression system
Procedure, shortened: as §1

[3] = biological target: T3, TYK2 (aa 871-1187, catalytic domain, GST-tag) (Homo sapiens, UniProt P29597); assay: JAK kinase assay (HTRF, phosphorylation of TK substrate-biotin), TYK2; settings: HTRF assay, ATP at Km (13 μM); read-out: TYK2 kinase inhibitory activity (EC50 indicator)
T3 construct: JAK1 (aa 850-1154) and TYK2 (aa 871-1187) are expressed with an N-terminally fused GST-tag; GST (N); purchased Carna Biosciences, Inc; host or cells: baculovirus expression system
T3 sequence (P29597 871-1187): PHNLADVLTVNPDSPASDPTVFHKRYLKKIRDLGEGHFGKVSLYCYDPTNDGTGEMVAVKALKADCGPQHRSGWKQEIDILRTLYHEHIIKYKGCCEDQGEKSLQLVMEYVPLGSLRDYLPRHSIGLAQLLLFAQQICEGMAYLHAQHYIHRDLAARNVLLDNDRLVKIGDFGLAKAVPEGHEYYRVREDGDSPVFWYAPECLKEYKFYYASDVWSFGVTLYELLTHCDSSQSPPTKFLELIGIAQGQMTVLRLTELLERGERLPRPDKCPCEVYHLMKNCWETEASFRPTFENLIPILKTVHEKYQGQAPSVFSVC
Procedure, shortened: as §1

[4] = biological target: T4, JAK1 (aa 850-1154, catalytic domain, GST-tag) (Homo sapiens, UniProt P23458); assay: JAK kinase assay (HTRF, phosphorylation of TK substrate-biotin), JAK1; settings: HTRF assay, ATP at Km (7 μM); read-out: JAK1 kinase inhibitory activity (EC50 indicator)
T4 construct: JAK1 (aa 850-1154) and TYK2 (aa 871-1187) are expressed with an N-terminally fused GST-tag; GST (N); purchased Carna Biosciences, Inc; host or cells: baculovirus expression system
Procedure, shortened: as §1

T2 sequence (P52333 822-1111 limits assumed): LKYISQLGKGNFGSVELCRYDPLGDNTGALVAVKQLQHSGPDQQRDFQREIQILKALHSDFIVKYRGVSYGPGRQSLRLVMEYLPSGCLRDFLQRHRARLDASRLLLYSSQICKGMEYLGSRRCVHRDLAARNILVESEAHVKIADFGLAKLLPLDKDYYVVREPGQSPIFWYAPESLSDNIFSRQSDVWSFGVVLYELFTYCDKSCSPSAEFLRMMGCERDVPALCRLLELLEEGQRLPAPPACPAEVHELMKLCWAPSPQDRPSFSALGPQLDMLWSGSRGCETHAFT
T4 sequence (P23458 850-1154): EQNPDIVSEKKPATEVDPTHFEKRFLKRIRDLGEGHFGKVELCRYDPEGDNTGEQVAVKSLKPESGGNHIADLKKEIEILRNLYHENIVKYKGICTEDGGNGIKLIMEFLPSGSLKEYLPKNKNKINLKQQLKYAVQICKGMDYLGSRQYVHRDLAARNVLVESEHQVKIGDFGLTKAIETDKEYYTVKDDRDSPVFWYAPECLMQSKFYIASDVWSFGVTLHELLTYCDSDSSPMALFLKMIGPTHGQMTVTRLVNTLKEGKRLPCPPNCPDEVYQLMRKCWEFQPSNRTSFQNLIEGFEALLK
T1 sequence (O60674 849-1124 limits assumed): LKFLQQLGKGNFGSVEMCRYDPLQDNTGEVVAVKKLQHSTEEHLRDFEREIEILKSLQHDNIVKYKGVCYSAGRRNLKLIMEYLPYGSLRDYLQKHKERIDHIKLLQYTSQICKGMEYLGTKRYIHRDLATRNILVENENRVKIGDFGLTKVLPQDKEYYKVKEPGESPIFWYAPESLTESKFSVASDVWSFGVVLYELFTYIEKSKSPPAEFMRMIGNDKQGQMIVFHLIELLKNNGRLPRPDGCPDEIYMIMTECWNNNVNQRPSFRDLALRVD

| EC50 [1] | EC50 [2] | EC50 [3] | EC50 [4] | SMILES |
| --- | --- | --- | --- | --- |
| > 500 nM | > 500 nM | > 500 nM | > 500 nM | N#CC1(C(=O)N2C[C@@H]3C[C@H]2CN3c2ncnc3[nH]ccc23)CC1 [Example 270, 1-[5-(7H-Pyrrolo[2,3-d]pyrimidin-4-yl)-2,5-diaza-bicyclo[2.2.1]heptane-2-carbonyl]-cyclopropanecarbonitrile] |
| > 500 nM | > 500 nM | > 500 nM | > 500 nM | N#Cc1ccc(CC(=O)N2C[C@@H]3C[C@H]2CN3c2ncnc3[nH]ccc23)cc1 [Example 278, 4-{2-Oxo-2-[5-(7H-pyrrolo[2,3-d]pyrimidin-4-yl)-2,5-diaza-bicyclo[2.2.1]hept-2-yl]-ethyl}-benzonitrile] |
| 100 to 500 nM | 100 to 500 nM | > 500 nM | > 500 nM | COc1cnc2[nH]ccc2c1N1CCN(C(=O)c2ccccc2)C2(CC2)C1 [Example 283, [7-(5-Methoxy-1H-pyrrolo[2,3-b]pyridin-4-yl)-4,7-diaza-spiro[2.5]oct-4-yl]-phenyl-methanone] |
| > 500 nM | > 500 nM | > 500 nM | > 500 nM | COc1cnc2[nH]ccc2c1N1CCN(C(=O)c2cc3ccccc3s2)C2(CC2)C1 [Example 284, Benzo[b]thiophen-2-yl-[7-(5-methoxy-1H-pyrrolo[2,3-b]pyridin-4-yl)-4,7-diaza-spiro[2.5]oct-4-yl]-methanone] |
| 100 to 500 nM | 100 to 500 nM | > 500 nM | > 500 nM | COc1cnc2[nH]ccc2c1N1CCN(C(=O)c2cnccn2)C2(CC2)C1 [Example 285, [7-(5-Methoxy-1H-pyrrolo[2,3-b]pyridin-4-yl)-4,7-diaza-spiro[2.5]oct-4-yl]-pyrazin-2-yl-methanone] |
| > 500 nM | > 500 nM | > 500 nM | > 500 nM | COc1cnc2[nH]ccc2c1N1CCN(C(=O)c2ccc(C#N)cc2)C2(CC2)C1 [Example 286, 4-[7-(5-Methoxy-1H-pyrrolo[2,3-b]pyridin-4-yl)-4,7-diaza-spiro[2.5]octane-4-carbonyl]-benzonitrile] |
| 100 to 500 nM | 100 to 500 nM | > 500 nM | > 500 nM | COc1cnc2[nH]ccc2c1N1CCN(C(=O)c2cccc(C#N)c2)C2(CC2)C1 [Example 287, 3-[7-(5-Methoxy-1H-pyrrolo[2,3-b]pyridin-4-yl)-4,7-diaza-spiro[2.5]octane-4-carbonyl]-benzonitrile] |
| > 500 nM | 100 to 500 nM | > 500 nM | > 500 nM | COc1cnc2[nH]ccc2c1N1CCN(C(=O)c2cc3ccccc3[nH]2)C2(CC2)C1 [Example 288, (1H-Indol-2-yl)-[7-(5-methoxy-1H-pyrrolo[2,3-b]pyridin-4-yl)-4,7-diaza-spiro[2.5]oct-4-yl]-methanone] |
| 100 to 500 nM | 100 to 500 nM | > 500 nM | 100 to 500 nM | COc1cnc2[nH]ccc2c1N1CCN(C(=O)c2csc3ccccc23)C2(CC2)C1 [Example 289, Benzo[b]thiophen-3-yl-[7-(5-methoxy-1H-pyrrolo[2,3-b]pyridin-4-yl)-4,7-diaza-spiro[2.5]oct-4-yl]-methanone] |
| > 500 nM | > 500 nM | > 500 nM | > 500 nM | COc1cnc2[nH]ccc2c1N1CCN(C(=O)c2ccc(-c3ccccc3)s2)C2(CC2)C1 [Example 290, [7-(5-Methoxy-1H-pyrrolo[2,3-b]pyridin-4-yl)-4,7-diaza-spiro[2.5]oct-4-yl]-(5-phenyl-thiophen-2-yl)-methanone] |
| > 500 nM | 100 to 500 nM | > 500 nM | > 500 nM | COc1cnc2[nH]ccc2c1N1CCN(C(=O)c2cc3cc(C#N)ccc3[nH]2)C2(CC2)C1 [Example 291, 2-[7-(5-Methoxy-1H-pyrrolo[2,3-b]pyridin-4-yl)-4,7-diaza-spiro[2.5]octane-4-carbonyl]-1H-indole-5-carbonitrile] |
| 100 to 500 nM | 100 to 500 nM | > 500 nM | > 500 nM | COc1cnc2[nH]ccc2c1N1CCN(C(=O)c2ccc(C#N)c(F)c2)C2(CC2)C1 [Example 292, 2-Fluoro-4-[7-(5-methoxy-1H-pyrrolo[2,3-b]pyridin-4-yl)-4,7-diaza-spiro[2.5]octane-4-carbonyl]-benzonitrile] |
| < 100 nM | < 100 nM | 100 to 500 nM | < 100 nM | COc1cnc2[nH]ccc2c1N1CCN(C(=O)CCCC#N)C2(CC2)C1 [Example 293, 5-[7-(5-Methoxy-1H-pyrrolo[2,3-b]pyridin-4-yl)-4,7-diaza-spiro[2.5]oct-4-yl]-5-oxo-pentanenitrile] |
| 100 to 500 nM | 100 to 500 nM | > 500 nM | 100 to 500 nM | COc1cnc2[nH]ccc2c1N1CCN(C(=O)Cc2cccc(C#N)c2)C2(CC2)C1 [Example 294, 3-{2-[7-(5-Methoxy-1H-pyrrolo[2,3-b]pyridin-4-yl)-4,7-diaza-spiro[2.5]oct-4-yl]-2-oxo-ethyl}-benzonitrile] |
| < 100 nM | < 100 nM | > 500 nM | 100 to 500 nM | COc1cnc2[nH]ccc2c1N1CCN(C(=O)Cc2ccc(C#N)cc2)C2(CC2)C1 [Example 295, 4-{2-[7-(5-Methoxy-1H-pyrrolo[2,3-b]pyridin-4-yl)-4,7-diaza-spiro[2.5]oct-4-yl]-2-oxo-ethyl}-benzonitrile] |
| < 100 nM | 100 to 500 nM | < 100 nM | < 100 nM | Cc1c(C(=O)N2CCN(c3ncnc4[nH]ccc34)CC23CC3)sc2ccccc12 [Example 296, (3-Methyl-benzo[b]thiophen-2-yl)-[7-(7H-pyrrolo[2,3-d]pyrimidin-4-yl)-4,7-diaza-spiro[2.5]oct-4-yl]-methanone] |
| < 100 nM | 100 to 500 nM | 100 to 500 nM | < 100 nM | Cc1ccc2sc(C(=O)N3CCN(c4ncnc5[nH]ccc45)CC34CC4)cc2c1 [Example 297, (5-Methyl-benzo[b]thiophen-2-yl)-[7-(7H-pyrrolo[2,3-d]pyrimidin-4-yl)-4,7-diaza-spiro[2.5]oct-4-yl]-methanone] |
| < 100 nM | < 100 nM | 100 to 500 nM | < 100 nM | N#CCCCC(=O)N1CCN(c2ncnc3[nH]ccc23)CC12CC2 [Example 298, 5-Oxo-5-[7-(7H-pyrrolo[2,3-d]pyrimidin-4-yl)-4,7-diaza-spiro[2.5]oct-4-yl]-pentanenitrile] |
| < 100 nM | 100 to 500 nM | 100 to 500 nM | < 100 nM | N#Cc1ccccc1C(=O)N1CCN(c2ncnc3[nH]ccc23)CC12CC2 [Example 299, 2-[7-(7H-Pyrrolo[2,3-d]pyrimidin-4-yl)-4,7-diaza-spiro[2.5]octane-4-carbonyl]-benzonitrile] |
| < 100 nM | 100 to 500 nM | 100 to 500 nM | < 100 nM | N#CCc1ccccc1C(=O)N1CCN(c2ncnc3[nH]ccc23)CC12CC2 [Example 300, {2-[7-(7H-Pyrrolo[2,3-d]pyrimidin-4-yl)-4,7-diaza-spiro[2.5]octane-4-carbonyl]-phenyl}-acetonitrile] |
| < 100 nM | < 100 nM | 100 to 500 nM | < 100 nM | N#Cc1ccc2c(C(=O)N3CCN(c4ncnc5[nH]ccc45)CC34CC4)n[nH]c2c1 [Example 301, 3-[7-(7H-Pyrrolo[2,3-d]pyrimidin-4-yl)-4,7-diaza-spiro[2.5]octane-4-carbonyl]-1H-indazole-6-carbonitrile] |
| < 100 nM | 100 to 500 nM | > 500 nM | 100 to 500 nM | Nc1nc(N2CCN(C(=O)c3cnccn3)C3(CC3)C2)c2cc[nH]c2n1 [Example 302, [7-(2-Amino-7H-pyrrolo[2,3-d]pyrimidin-4-yl)-4,7-diaza-spiro[2.5]oct-4-yl]-pyrazin-2-yl-methanone] |
| < 100 nM | 100 to 500 nM | > 500 nM | < 100 nM | N#Cc1ccc(C(=O)N2CCN(c3nc(N)nc4[nH]ccc34)CC23CC3)cc1 [Example 303, 4-[7-(2-Amino-7H-pyrrolo[2,3-d]pyrimidin-4-yl)-4,7-diaza-spiro[2.5]octane-4-carbonyl]-benzonitrile] |
| < 100 nM | < 100 nM | 100 to 500 nM | < 100 nM | N#Cc1cccc(C(=O)N2CCN(c3nc(N)nc4[nH]ccc34)CC23CC3)c1 [Example 304, 3-[7-(2-Amino-7H-pyrrolo[2,3-d]pyrimidin-4-yl)-4,7-diaza-spiro[2.5]octane-4-carbonyl]-benzonitrile] |
